“Also recorded” adds a separate entry of the source.
How the values were obtained:
hSARS-CoV2 [1] = experiment: Cytopathic effect and cell growth in Vero81 cells infected with hSARS-CoV2; format: cell-based, SARS-CoV-2; conditions: MOI 0.01, 72 hours
Procedure: Vero cells [ATCC® CCL-81™, ECACC, Sigma-Aldrich, France, hereafter “Vero81” cells] were cultured in Dulbecco’s modified Eagle medium (DMEM) supplemented with 10% fetal bovine serum (FBS) and GlutaMAX™ in a humidified atmosphere of 5% CO2 at 37° C.
Tested compound: solutions of the clofoctol were prepared in DMSO at concentrations required to achieve the desired concentrations in the experiment. Solutions were dispensed onto the living cells. The maximum concentration of DMSO was 0.15%.
Cell infection: cells were infected after addition of clofoctol at various concentrations or control solvents. The multiple of infection was 0.01. […]
The effect of clofoctol on Vero81 cells infected with hSARS-CoV2 was assessed by adding a range of concentrations of clofoctol, following 1:3 dilutions, prior to infection with hSARS-CoV2 at MOI 0.01 (Multiple Of Infection (MOI) 0.01 means that the amount of virus used is 0.01 per 1 cell) for 72 hours. […]
(§1) The results were obtained by analyzing the percentage of PI-positive nuclei expressed as the percentage of CPE relative to a scale defined by positive (0% infected cells) and negative (100% infected cells) controls. […]
The effect of clofoctol on Vero81 cells infected with hSARS-CoV2 was assessed by adding a range of concentrations of clofoctol, following 1:3 dilutions, prior to infection with hSARS-CoV2 at MOI 0.01 for 72 hours. […]

hSARS-CoV2 [2] = experiment: Cytopathic effect and cell growth in TMPRSS2-transduced Vero81 cells infected with hSARS-CoV2; format: cell-based, SARS-CoV-2; conditions: MOI 0.01, 72 hours
Procedure: Vero-81 cells were transduced with a lentivirus expressing TMPRSS2. TMPRSS2 was cloned into pTRIP vector, lentivectors were produced by transfection of HEK293T cells with pTRIP-TMPRSS2, phCMV-VSVG and HIV gag-pol with Turbofect™ (ThermoFischer) according to the manufacturer’s instruction. Supernatants containing lentiviral vectors were used to transduce cells. Then cells were used in experiments 72 h after the transduction.
Tested compound: solutions of the clofoctol were prepared in DMSO at concentrations required to achieve the desired concentrations in the experiment. Solutions were dispensed onto the living cells. The maximum concentration of DMSO was 0.15%. […]
The effect of clofoctol on TMPRSS2-transduced Vero81 cells infected with hSARS-CoV2 was assessed by adding a range of concentrations of clofoctol, following 1:3 dilutions, prior to infection with hSARS-CoV2 at MOI 0.01 for 72 hours. […]
as §1
The results were obtained by analyzing the number of living cells expressed as the percentage of cell growth improvement relative to a scale defined by normal cell growth (not infected controls) and no cell growth (infected controls). […]

hSARS-CoV2 [3] = experiment: Viral genomic replication (RT-qPCR) in Vero81 and TMPRSS2-transduced Vero81 cells; format: cell-based, SARS-CoV-2
Procedure: Cell culture: Vero81 cells and Vero-81 cells transduced with TMPRSS2 were cultured in Dulbecco’s modified Eagle medium (DMEM) supplemented with 10% fetal bovine serum (FBS) and GlutaMAX™ in a humidified atmosphere of 5% CO2 at 37° C.
Tested compound: solutions of clofoctol were prepared in DMSO at concentrations required to achieve the desired concentrations in the experiment. Solutions were dispensed onto the living cells. The maximum concentration of DMSO was 0.15%.
Cell infection: cells were infected after addition of clofoctol at various concentrations or control solvents. The multiple of infection was 0.25. […]
RNA dosing: after 6 hours of incubation, total cellular RNA was extracted by using the Nucleospin RNA kit (Macherey-Nagel) as recommended by the manufacturer and SARS-CoV-2 genome were measured by quantitative RT-PCR. […] Primers and probe (WHO protocol) targeting the open reading frame for the E gene were used. […]
The effect of clofoctol on Vero81 and TMPRSS2-transduced Vero81 cells infected with hSARS-CoV2 was assessed by adding a range of concentrations of clofoctol, following 1:2,5 dilutions, prior to infection with hSARS-CoV2 at MOI 0.25 for 6 hours. […]
Results were obtained by dosing viral RNA and the viral load was expressed as the ratio of the viral RNA on the total RNA (RNAt) of the sample. […]

SARS-CoV-2 [4] = format: cell-based; conditions: Vero-81 and Vero-81-TMPRSS2 cells, MOI 0.25, treatment after 1 h infection, 16 h
SARS-CoV-2 [5] = format: cell-based; conditions: Calu-3 cells, MOI 0.25, 24 h
[6] = Pharmacokinetics in C57BL/6J mice, plasma and lung concentration; format: in vivo; conditions: i.p. 62.5 mg/kg single dose or twice daily for two days
Procedure: Clofoctol diluted in 1.75% final Kolliphor® RH40 (07076, Sigma) and 1.4% final ethanol in a sodium chloride solution was used for intraperitoneal injection. Female 8-10 week-old C57BL/6J mice were treated i.p. with a single dose of clofoctol (62.5 mg/kg) and were sacrificed at different time points thereafter (FIG. 9, left panel). In a separate experiment, the mice were treated i.p. twice daily with a dose of clofoctol (62.5 mg/kg) for two days, and the mice were sacrificed 1 h after the last injection (FIG. 9, right panel). The concentration of clofoctol in the plasma and lung of treated mice was measured as follows: plasma samples and lung tissues were collected and treated with absolute ethanol, in a ratio of 1 to 10 and 1 to 50, respectively. Lung tissues were homogenized with a mechanical lysis system (Tissue Lyzer II). Supernatants were obtained by centrifugation before injection in LC-MS/MS. Samples were analysed using UPLC system Acquity I Class (Waters), combined with a triple quadrupole mass spectrometer Xevo TQD (Waters). The column, placed at 40° C., was an Acquity BEH C8 50*2.1 mm, 1.7 µm column (Waters) and the following mobile phases were used: 5 mM ammonium formate pH 3.75 in water, as solvent (A) and 5 mM ammonium formate pH 3.75 in acetonitrile as solvent (B). […]

SARS-CoV-2 [7] = format: in vivo, K18-human ACE2 expressing C57BL/6 mice; conditions: i.p. 62.5 mg/kg 1 h and 8 h after inoculation and twice daily at day 1; day 2 post-infection
HCoV-229E-Rluc = format: cell-based; conditions: Huh-7 cells, 7h post-infection
hSARS-CoV-2 = experiment: Infected human bronchial epithelia (MucilAir), secreted virus and viral RNA; format: cell-based, SARS-CoV-2; conditions: apical administration, MOI 0.2, 72 hours
Procedure: Human bronchial epithelia (MucilAir™, available from the company Epithelix) were treated through apical administration of clofoctol. The epithelia were first washed with Mucilair® culture medium containing different concentrations of clofoctol prior to infection by hSARS-CoV-2 at MOI 0.2 for 1 hour, still in the presence of clofoctol. Then, the inoculum was removed and epithelia were washed with PBS before addition at the apical pole of 25 µl of Mucilair® culture medium containing different concentrations of clofoctol. After 72 hours of incubation at 37° C., 200 µl of MucilAir™ culture medium was added at the apical pole of the epithelia and harvested, after incubating for 5 minutes. These supernatants were used to quantify the amount of secreted virus as assessed by TCID50. The results are shown in FIG. 15 in which the dotted line represents the limit of detection […]. In addition, total RNAs were extracted by using the Nucleospin RNA kit (Macherey-Nagel) prior to genome quantification by RT-qPCR. The data in both FIGS. 15 and 16 represent the average and standard-deviation of technical triplicates (n=3).

[8] = read-out: Cmax in human lung tissue; patients undergoing pulmonary resection or pneumonectomy, clofoctol administered before or during surgery; cited from earlier work

## CC(C)(C)CC(C)(C)c1ccc(O)c(Cc2ccc(Cl)cc2Cl)c1 [clofoctol, 2-(2,4-Dichlorobenzyl)-4-(1,1,3,3-tetramethylbutyl)phenol]
hSARS-CoV2 [1]
  IC95, concentration reducing 95% of the CPE (percentage of PI-positive nuclei): 9.2 µM
hSARS-CoV2 [1]; estimated
  EC95, concentration at which 95% of maximum response is observed (cell growth improvement): ~21 µM
hSARS-CoV2 [2]
  IC95 of the CPE (percentage of PI-positive nuclei): 8.7 µM
hSARS-CoV2 [2]; estimated
  EC95 (cell growth improvement): ~25 µM
hSARS-CoV2 [3]; Vero81 and TMPRSS2-transduced Vero81 cells, MOI 0.25, 6 hours
  IC95 of viral load (ratio of viral RNA on total RNA): 11 µM
hSARS-CoV2 [3]; Vero-81 and Vero-81-TMPRSS2 cells, MOI 0.25, 6 h, increasing concentrations
  Genomic replication of SARS-CoV-2 (viral RNA by RT-qPCR, normalized to total RNA): inhibits the replication of hSARS-CoV2 in infected cells; also recorded: inhibits the genomic replication of SARS-CoV-2
SARS-CoV-2 [4]
  Secreted infectious virus (TCID50) in supernatants: inhibits the secretion of hSARS-CoV-2 by infected cells; also recorded: SARS-CoV-2 load decreases as the concentration of clofoctol increases
SARS-CoV-2 [5]
  SARS-CoV-2 replication (viral RNA by RT-qPCR): inhibits SARS-CoV-2 replication in Calu-3 cells
[6]
  Distribution in lungs (concentration in plasma and lung): distributed in lungs at very significant levels
SARS-CoV-2 [7]
  SARS-CoV-2 infection in mice (lung viral load by titration and RT-qPCR): significantly reduces SARS-CoV-2 infection in mice
HCoV-229E-Rluc
  Activity against HCoV-229E (luciferase activity, percentage of control): active against HCoV-229E
hSARS-CoV-2; 30 µM
  Factor of reduction of virus titer in the mucus of human bronchial epithelium (TCID50): more than 100
hSARS-CoV-2; not normalized
  Viral RNA quantitation (RT-qPCR) in human bronchial epithelia: decrease of viral RNA quantitation
[8]
  Cmax: ~250 µM

Reference: patent US20230233483A1, “COMPOUND AND METHOD FOR THE TREATMENT OF CORONAVIRUSES” (Apteeus, priority 2020, published 2023)
